Data from patent publication US20060148730A1, “Method of treating tuberculosis” (priority 2003, published 2006).
≈ marks a conversion by molar mass, not a printed value. Where two headings read alike, the source gives them in different places.

Key:
M. tuberculosis H37Rv = experiment: MIC vs. M. tuberculosis H37Rv, microplate Alamar Blue assay (MABA); format: cell-based; conditions: for anti-TB activity / MIC in words: result in words
[1] = Overt toxicity in mice, escalating 5-day dosing cycles; format: in vivo, Balb/C mice; conditions: once daily, 5-day cycles, sequentially 200, 300, 400, 500 mg/kg
Description: Prior to assessing in vivo efficacy, RU66252 and RU69874 were administered to pairs of female Balb/C mice once daily for 5-day cycles, and observed for overt signs of toxicity (e.g., weight loss, ruffled fur, and huddling), after which the mice were rested for 1 or 2 days. Then the dosage was increased for another 5-day cycle. Overall, the same mice received sequentially for 5 days: 200, 300, 400, and 500 mg/kg.

VERO cells = experiment: Cytotoxicity against VERO cells (MTS, 72 hours); conditions: result in words
[2] = system: J774.1 macrophage cell line; experiment: Cytotoxicity against J774.1 macrophage cell line; format: cell-based, murine; conditions: Mus musculus
[3] = Table 3, parallel-synthesis carbazate library products, SPE purified, read-out: MIC
[4] = Mycobacterium tuberculosis, H37RV, Table 4, read-out: MIC

CC[C@H]1OC(=O)[C@H](C)[C@@H](O[C@H]2C[C@@](C)(OC)[C@@H](O)[C@H](C)O2)[C@H](C)[C@@H](O[C@@H]2O[C@H](C)C[C@H](N(C)C)[C@H]2O)[C@](C)(OC)C[C@@H](C)C(=O)[C@H](C)[C@H]2N(CCCCn3cnc(-c4cccnc4)c3)C(=O)O[C@]12C [RU69874]
anti-TB activity / MIC in words (M. tuberculosis H37Rv): very low | signs of overt toxicity (weight loss, ruffled fur, huddling) [1]: No signs of overt toxicity | in vitro toxicity / cytotoxicity in words (VERO cells): comparable to clarithromycin

CC[C@H]1OC(=O)[C@@](C)(F)C(=O)[C@H](C)[C@@H](O[C@@H]2O[C@H](C)C[C@H](N(C)C)[C@H]2O)[C@](C)(OCC#Cc2cc(-c3cnc4ccccc4c3)no2)C[C@@H](C)C(=O)[C@H](C)[C@H]2NC(=O)O[C@@]21C [Compound A323348]
MIC (M. tuberculosis H37Rv; Table 1a, 11,12-carbamate derivatives, anti-TB activity, read-out: MIC): 0.38 µM (≈ 0.323 µg/mL) | MIC (M. tuberculosis H37Rv; read-out: minimum inhibitory concentration (MIC) against M. tuberculosis): 0.38 µM (≈ 0.323 µg/mL) | anti-TB activity / MIC in words (M. tuberculosis H37Rv): very low | in vitro toxicity / cytotoxicity in words (VERO cells): comparable to clarithromycin

CC[C@H]1OC(=O)[C@H](C)[C@@H](O[C@H]2CC(C)(OC)[C@@H](O)[C@H](C)O2)[C@H](C)[C@@H](O[C@@H]2O[C@H](C)C[C@H](N(C)C)[C@H]2O)[C@](C)(OC)C[C@@H](C)C(=O)[C@H](C)[C@H]2N(NCc3cc(Br)cs3)C(=O)O[C@]12C (some centres unmarked) [F11′]
MIC (M. tuberculosis H37Rv; [3]): 12.7 µM (≈ 12.2 µg/mL)

CC[C@H]1OC(=O)[C@H](C)[C@@H](O)[C@H](C)[C@@H](O[C@@H]2O[C@H](C)C[C@H](N(C)C)[C@H]2O)[C@](C)(OC)C[C@@H](C)C(=NOCCc2ccccc2)[C@H](C)[C@@H](O)[C@]1(C)O [Compound 2GY7]
MIC (M. tuberculosis H37Rv; Table 5, read-out: MIC): 16 µM (≈ 11.3 µg/mL)

CC[C@H]1OC(=O)[C@H](C)[C@@H](O[C@H]2CC(C)(OC)[C@@H](O)[C@H](C)O2)[C@H](C)[C@@H](O[C@@H]2O[C@H](C)C[C@H](N(C)C)[C@H]2O)[C@](C)(OC)C[C@@H](C)C(=O)[C@H](C)[C@H]2N(NCc3cncn3C)C(=O)O[C@]12C (some centres unmarked) [B5′]
MIC (M. tuberculosis H37Rv; [3]): >27 µM

CC[C@H]1OC(=O)[C@H](C)C(O[C@H]2CC(C)(OC)[C@@H](OC(=O)Nc3ccccc3)[C@H](C)O2)[C@H](C)[C@@H](O[C@@H]2O[C@H](C)C[C@H](N(C)C)[C@H]2O)[C@](C)(OC)C[C@@H](C)C(=O)[C@H](C)[C@@H](O)[C@]1(C)O (some centres unmarked) [Compound 1SH63]
MIC (M. tuberculosis H37Rv; [4]): 16 µM (≈ 13.9 µg/mL)

CC[C@H]1OC(=O)[C@H](C)[C@@H](O[C@H]2CC(C)(OC)[C@@H](O)[C@H](C)O2)[C@H](C)[C@@H](O[C@@H]2O[C@H](C)C[C@H](N(C)C)[C@H]2O)[C@](C)(OC)C[C@@H](C)C(=O)[C@H](C)[C@H]2N(NCc3cccnc3NC(=O)C(C)(C)C)C(=O)O[C@]12C (some centres unmarked) [E4′]
MIC (M. tuberculosis H37Rv; [3]): >27 µM

CC[C@H]1OC(=O)[C@H](C)[C@@H](O[C@H]2CC(C)(OC)[C@@H](O)[C@H](C)O2)[C@H](C)[C@@H](O[C@@H]2O[C@H](C)C[C@H](N(C)C)[C@H]2O)[C@](C)(OC)C[C@@H](C)C(=O)[C@H](C)[C@H]2N(NCc3cnccc3NC(=O)C(C)(C)C)C(=O)O[C@]12C (some centres unmarked) [E2′]
MIC (M. tuberculosis H37Rv; [3]): >27 µM

CC[C@H]1OC(=O)[C@H](C)[C@@H](O[C@H]2CC(C)(OC)[C@@H](O)[C@H](C)O2)[C@H](C)[C@@H](O[C@@H]2O[C@H](C)C[C@H](N(C)C)[C@H]2O)[C@](C)(OC)C[C@@H](C)C(=O)[C@H](C)[C@H]2N(CC/C=C\c3ccccc3)C(=O)O[C@]12C (some centres unmarked) [ITR0020]
MIC (M. tuberculosis H37Rv; [4]): 6.6 µM (≈ 5.96 µg/mL)

CC[C@H]1OC(=O)[C@H](C)[C@@H](O[C@H]2CC(C)(OC)[C@@H](O)[C@H](C)O2)[C@H](C)[C@@H](O[C@@H]2O[C@H](C)C[C@H](N(C)C)[C@H]2O)[C@](C)(OC)C[C@@H](C)C(=O)[C@H](C)[C@H]2N(NCc3ccc4c(c3)nnn4C)C(=O)O[C@]12C (some centres unmarked) [H7′]
MIC (M. tuberculosis H37Rv; [3]): >22 µM

CC[C@H]1OC(=O)[C@H](C)[C@@H](O[C@H]2CC(C)(OC)[C@@H](O)[C@H](C)O2)[C@H](C)[C@@H](O[C@@H]2O[C@H](C)C[C@H](N(C)C)[C@H]2O)[C@](C)(OC)C[C@@H](C)C(=O)[C@H](C)[C@H]2N(NCc3c(C(F)(F)F)nn(C)c3Cl)C(=O)O[C@]12C (some centres unmarked) [D3′]
MIC (M. tuberculosis H37Rv; [3]): 20 µM (≈ 19.7 µg/mL)

CCOC(=O)c1cc(-c2ccc(Cl)cc2)oc1CNN1C(=O)O[C@]2(C)[C@@H](CC)OC(=O)[C@H](C)[C@@H](O[C@H]3CC(C)(OC)[C@@H](O)[C@H](C)O3)[C@H](C)[C@@H](O[C@@H]3O[C@H](C)C[C@H](N(C)C)[C@H]3O)[C@](C)(OC)C[C@@H](C)C(=O)[C@H](C)[C@@H]12 (some centres unmarked) [B1′]
MIC (M. tuberculosis H37Rv; [3]): >18 µM

CC[C@H]1OC(=O)[C@H](C)[C@@H](O)[C@H](C)[C@@H](OC2OC(C)CC(N(C)C)C2OC(=O)Nc2ccccc2)[C@](C)(OC)C/C(C)=C2/O[C@@]1(C)C=C2C (some centres unmarked) [Compound 1GYG9]
MIC (M. tuberculosis H37Rv; Mycobacterium tuberculosis, H37RV, Table 5, read-out: MIC): 16 µM (≈ 10.8 µg/mL)

CC[C@H]1OC(=O)[C@H](C)[C@@H](O[C@H]2CC(C)(OC)[C@@H](O)[C@H](C)O2)[C@H](C)[C@@H](O[C@@H]2O[C@H](C)C[C@H](N(C)C)[C@H]2O)[C@](C)(OC)C[C@@H](C)C(=O)[C@H](C)[C@H]2N(NCc3ccc(N4CCC(c5ccccc5OC)CC4)c([N+](=O)[O-])c3)C(=O)O[C@]12C (some centres unmarked) [G12′]
MIC (M. tuberculosis H37Rv; [3]): 19 µM (≈ 21.1 µg/mL)

CC[C@H]1OC(=O)[C@H](C)[C@@H](O[C@H]2CC(C)(OC)[C@@H](O)[C@H](C)O2)[C@H](C)[C@@H](O[C@@H]2O[C@H](C)C[C@H](N(C)C)[C@H]2O)[C@](C)(OC)C[C@@H](C)C(=O)[C@H](C)[C@H]2N(NCc3sc(C)nc3C)C(=O)O[C@]12C (some centres unmarked) [F5′]
MIC (M. tuberculosis H37Rv; [3]): >19 µM

CC[C@H]1OC(=O)[C@H](C)[C@@H](O[C@H]2CC(C)(OC)[C@@H](O)[C@H](C)O2)[C@H](C)[C@@H](O[C@@H]2O[C@H](C)C[C@H](N(C)C)[C@H]2O)[C@](C)(OC)C[C@@H](C)C(=O)[C@H](C)[C@H]2N(NCc3ccoc3)C(=O)O[C@]12C (some centres unmarked) [A10′]
MIC (M. tuberculosis H37Rv; [3]): >7 µM

CC[C@H]1OC(=O)[C@H](C)[C@@H](OC2CC(C)(OC)C(OC(=O)c3ccccc3)C(C)O2)[C@H](C)[C@@H](OC2OC(C)CC(N(C)C)C2OC(=O)c2ccccc2)[C@](C)(OC)C[C@@H](C)C(=O)[C@H](C)[C@H]2N(NCCCc3ccnc4ccccc34)C(=O)O[C@]12C (some centres unmarked) [Compound 1SH53b]
MIC (M. tuberculosis H37Rv; [4]): 11 µM (≈ 12.8 µg/mL)

CC[C@H]1OC(=O)[C@H](C)C(=O)[C@H](C)[C@@H](O[C@@H]2O[C@H](C)C[C@H](N(C)C)[C@H]2O)[C@](C)(OC)C[C@@H](C)C(=O)[C@H](C)[C@H]2N(CCCCn3cnc(-c4cccnc4)c3)C(=O)O[C@]12C [Telithromycin, reference compound]
MIC (M. tuberculosis H37Rv; Mycobacterium tuberculosis, H37RV, Table 1a, 11,12-carbamate derivatives, anti-TB activity, read-out: MIC): 48 µM (≈ 39 µg/mL) | anti-TB activity / MIC in words (M. tuberculosis H37Rv): less active than clarithromycin | IC50 ([2]; J774.1, read-out: J774 IC50): 102 µM | IC50 ([2]; J774.1, read-out: toxicity based on J774 cells): 102 µM

CC[C@H]1OC(=O)[C@H](C)[C@@H](O[C@H]2CC(C)(OC)[C@@H](O)[C@H](C)O2)[C@H](C)[C@@H](O[C@@H]2O[C@H](C)C[C@H](N(C)C)[C@H]2O)[C@](C)(OC)C[C@@H](C)C(=O)[C@H](C)[C@H]2N(NCc3cccn3-c3ccc(C(F)(F)F)cc3)C(=O)O[C@]12C (some centres unmarked) [F1′]
MIC (M. tuberculosis H37Rv; [3]): 17.6 µM (≈ 17.8 µg/mL)

CCC1OC(=O)C(C)C(OC2CC(C)(OC)C(O)C(C)O2)C(C)C(OC2OC(C)CC(N(C)C)C2O)C(C)(O)CC(C)C(=NN=Cc2ccc(SC)cc2)C(C)C(O)C1(C)O (centres unmarked) [Compound 1OK121]
MIC (M. tuberculosis H37Rv; Table 5, read-out: MIC): 12 µM (≈ 10.6 µg/mL)

CC[C@H]1OC(=O)[C@H](C)[C@@H](O[C@H]2CC(C)(OC)[C@@H](O)[C@H](C)O2)[C@H](C)[C@@H](O[C@@H]2O[C@H](C)C[C@H](N(C)C)[C@H]2O)[C@](C)(OC)C[C@@H](C)C(=O)[C@H](C)[C@H]2N(NCc3cc(Cl)cc(Br)c3O)C(=O)O[C@]12C (some centres unmarked) [G8′]
MIC (M. tuberculosis H37Rv; [3]): 14 µM (≈ 14.1 µg/mL)

CCC1OC(=O)C(C)C(OC2CC(C)(OC)C(O)C(C)O2)C(C)C(OC2OC(C)CC(N(C)C)C2O)C(C)(OC)CC(C)C(=NOCC(=O)c2ccc(-c3ccccc3)cc2)C(C)C(O)C1(C)O (centres unmarked) [Compound 1GY53]
MIC (M. tuberculosis H37Rv; Table 5, read-out: MIC): 6.8 µM (≈ 6.51 µg/mL)

CC[C@H]1OC(=O)[C@H](C)[C@@H](O)[C@H](C)[C@@H](O[C@@H]2O[C@H](C)C[C@H](N(C)C)[C@H]2O)[C@](C)(OC)C[C@@H](C)C(=NOCCCc2ccccc2)[C@H](C)[C@@H](O)[C@]1(C)O [Compound 2GY15]
MIC (M. tuberculosis H37Rv; Table 5, read-out: MIC): 6.3 µM (≈ 4.55 µg/mL)

CC[C@H]1OC(=O)[C@H](C)C(=O)[C@H](C)[C@@H](O[C@@H]2O[C@H](C)C[C@H](N(C)C)[C@H]2O)[C@](C)(OC)C[C@@H](C)C(=NOCOCCOC)[C@H](C)[C@@H](O)[C@]1(C)O [RU54615]
MIC (M. tuberculosis H37Rv; Table 2a, 11,12-diols, anti-TB activity, read-out: MIC): >128 µM

CCC1OC(=O)C(C)C(OC2CC(C)(OC)C(O)C(C)O2)C(C)C(OC2OC(C)CC(N(C)C)C2O)C(C)(O)CC(C)C(=NNCc2ccc(C(F)(F)F)cc2)C(C)C(O)C1(C)O (centres unmarked) [Compound 1OK133]
MIC (M. tuberculosis H37Rv; Table 5, read-out: MIC): 25 µM (≈ 22.7 µg/mL)

CC[C@H]1OC(=O)[C@H](C)[C@@H](OC2CC(C)(OC)C(OC(=O)c3ccccc3)C(C)O2)[C@H](C)[C@@H](OC2OC(C)CC(N(C)C)C2O)[C@](C)(OC)C[C@@H](C)C(=O)[C@H](C)[C@H]2N(NCCCc3ccnc4ccccc34)C(=O)O[C@]12C (some centres unmarked) [Compound 1SH53a]
MIC (M. tuberculosis H37Rv; [4]): 1.69 µM (≈ 1.79 µg/mL)

CCC1OC(=O)C(C)C(OC2CC(C)(OC)C(O)C(C)O2)C(C)C(OC2OC(C)CC(N(C)C)C2OC(=S)Nc2ccccc2)C(C)(O)CC(C)C(=NOCOCCOC)C(C)C(O)C1(C)O (centres unmarked) [Compound 3ZZ59b]
MIC (M. tuberculosis H37Rv; Table 5, read-out: MIC): 5.6 µM (≈ 5.44 µg/mL)
